Reference: the supplement of paper PMC10307832

Key:
Experiment in all cases: relative viability (nuclei count vs DMSO), 5 days (fraction); higher = more cells survive
[1] = compound: COc1cc2nc(N3CCCN(C)CC3)nc(NC3CCN(Cc4ccccc4)CC3)c2cc1OC
Outline: (§1)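 Lung cancer cell lines were seeded into 1536-well plates, kept overnight at 37 °C and pinned with five library-drug doses (not always all listed) spaced by √10. After 5 days, nuclei were Hoechst-stained, imaged at 4× and counted with MetaXpress. Viability is treated-well nuclei over vehicle-well nuclei, taken as a median across plates. Plates needed control CV below 25% and at least one doubling.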

AZD6482 = compound: Cc1cc([C@@H](C)Nc2ccccc2C(=O)O)c2nc(N3CCOCC3)cc(=O)n2c1 [AZD6482]
Outline: as §1

[2] = compound: COc1cc2nc(N3CCCN(C)CC3)nc(NC3CCN(Cc4ccccc4)CC3)c2cc1OC + Cc1nc(NC(=O)N2CCC[C@H]2C(N)=O)sc1-c1ccnc(C(C)(C)C(F)(F)F)c1 [Alpelisib] (partner 2 µM)
Outline: (§2)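 Relative viability equals treated-well nuclei counts divided by vehicle-well nuclei counts. Counts came from 4× images of lung cancer cell lines grown in 1536-well plates for 5 days after pin-tool dosing on the day after seeding. Dosing used one drug alone or a fixed anchor-drug dose plus five library-drug doses (not always all listed) in √10 steps, and values are medians of duplicate plates.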

AZD6482 + Bortezomib = compound: Cc1cc([C@@H](C)Nc2ccccc2C(=O)O)c2nc(N3CCOCC3)cc(=O)n2c1 [AZD6482] + CC(C)C[C@H](NC(=O)[C@H](Cc1ccccc1)NC(=O)c1cnccn1)B(O)O [Bortezomib] (partner 0.002 µM)
Outline: as §2

Cell Line | relative viability ([1]; 0.2 µM) | relative viability ([1]; 0.6325 µM) | relative viability ([1]; 2 µM) | relative viability ([1]; 6.325 µM) | relative viability (AZD6482; 0.253 µM) | relative viability (AZD6482; 0.8 µM) | relative viability (AZD6482; 2.53 µM) | relative viability (AZD6482; 8 µM) | relative viability ([2]; first compound 0.2 µM) | relative viability ([2]; first compound 0.6325 µM) | relative viability ([2]; first compound 2 µM) | relative viability ([2]; first compound 6.325 µM) | relative viability (AZD6482 + Bortezomib; first compound 0.08 µM) | relative viability (AZD6482 + Bortezomib; first compound 0.253 µM) | relative viability (AZD6482 + Bortezomib; first compound 0.8 µM) | relative viability (AZD6482 + Bortezomib; first compound 2.53 µM) | relative viability (AZD6482 + Bortezomib; first compound 8 µM) | relative viability (AZD6482; 0.08 µM)
SK-LU-1 | 1.01 | 1.01 | 1.08 | 1.02 | 0.978 | 1.03 | 0.722 | 0.592 | 1.21 | 0.977 | 1.04 | 0.577 | 0.776 | 0.642 | 1.16 | 0.589 | 0.46 | 
NCI-H1299 | 0.984 | 1.03 | 1.06 | 0.97 | 1.07 | 1.14 | 0.914 | 1.02 | 1.03 | 1.08 | 1.06 | 1.08 | 0.916 | 1.03 | 1.11 | 0.957 | 1.1 | 0.998
NCI-H2009 | 1.04 | 0.94 | 1.17 | 0.932 | 1.04 | 1.06 | 0.59 | 0.74 | 1.24 | 1.07 | 1.18 | 1.07 | 0.985 | 1.04 | 1.04 | 0.601 | 0.783 | 1.02
LOU-NH91 | 0.96 | 1.13 | 0.838 | 0.983 | 0.918 | 0.959 | 0.61 | 0.744 | 0.736 | 0.755 | 0.588 | 0.642 | 0.453 | 0.473 | 0.519 | 0.475 | 0.6 | 0.852
NCI-H2405 | 1.03 | 1.08 | 1.13 | 0.989 | 0.672 | 1.03 | 0.631 | 0.599 | 0.784 | 0.772 | 0.835 | 0.632 | 0.77 | 0.895 | 1.06 | 0.73 | 0.661 | 0.749
LCLC-97TM1 | 0.936 | 0.996 | 1.09 | 0.947 | 0.865 | 0.855 |  | 0.836 | 0.241 |  | 0.243 | 0.258 | 0.499 | 0.38 | 0.435 |  | 0.351 | 1.03
NCI-H596 | 0.969 | 1.19 | 0.964 | 0.836 | 0.91 | 0.92 | 0.909 | 0.929 | 0.616 | 0.458 | 0.498 | 0.44 | 0.988 | 0.95 | 0.946 | 1.01 | 0.985 | 0.844
NCI-H727 | 0.834 | 0.867 | 0.826 | 0.783 | 0.789 | 0.945 | 0.58 | 0.833 | 0.633 | 0.615 | 0.593 | 0.328 | 0.908 | 0.868 | 1.06 |  | 0.887 | 0.877
H3255 | 0.915 | 0.986 | 1.1 | 0.961 | 0.918 | 0.979 | 0.688 | 0.835 | 0.632 | 0.852 | 0.86 | 0.523 | 0.738 | 0.896 | 0.874 | 0.382 | 0.559 | 0.996
NCI-H1437 | 0.983 | 0.992 | 1.06 | 0.99 | 0.972 | 1.03 | 0.847 | 0.726 | 0.995 | 0.971 | 1.12 | 0.828 | 0.466 | 0.385 | 0.592 | 0.484 | 0.374 | 1.04
LU99A | 0.868 | 0.838 | 1.03 | 0.885 | 0.894 | 1.04 | 0.797 | 0.948 | 0.539 | 0.458 | 0.454 | 0.479 | 1.07 | 1.16 | 1.11 | 0.875 | 0.823 | 0.915
HCC-827 | 1.05 | 1.04 | 1 | 1.01 | 1.02 | 1.02 | 0.854 | 0.918 | 0.906 | 0.922 | 0.952 | 0.891 | 0.991 | 1.1 | 1.09 | 0.872 | 0.836 | 0.979
HCC-366 | 1.01 | 1.03 | 0.968 | 1.01 | 0.979 | 0.996 | 0.885 | 0.827 | 0.519 | 0.558 | 0.468 | 0.283 | 0.944 | 0.969 | 1.06 | 0.84 | 0.742 | 0.975
BEN | 1.03 | 1.06 | 1.19 | 1.04 | 0.791 | 1.05 | 0.803 | 0.853 | 1.07 | 1 | 1.13 | 1.06 | 0.592 | 0.768 | 0.596 | 0.641 | 0.788 | 0.889
NCI-H23 | 0.975 | 0.962 | 1.05 | 0.927 | 0.861 | 1 | 0.61 | 0.624 | 0.623 | 0.693 | 0.775 | 0.675 | 0.958 | 0.861 | 1.29 | 0.621 | 0.861 | 0.967
201T | 0.976 | 1.05 | 1.01 | 0.983 | 0.97 | 0.969 | 0.771 | 0.958 | 1.01 | 0.998 | 1.05 | 1.01 | 1.08 | 1.08 | 1.14 | 0.891 | 1.11 | 0.977
NCI-H460 | 0.997 | 1.01 | 0.992 | 0.978 | 0.969 | 1.01 | 0.846 | 0.822 | 0.481 | 0.483 | 0.42 | 0.242 | 0.957 | 0.956 | 1.17 | 0.685 | 0.958 | 0.963
NCI-H661 | 0.978 | 0.987 | 1 | 1.01 | 0.98 | 0.973 | 0.671 | 0.851 | 0.556 | 0.64 | 0.809 | 0.774 | 0.71 | 0.608 | 0.723 |  | 0.622 | 0.981
HCC-15 | 0.985 | 0.977 | 1.06 | 0.862 | 0.962 | 1.04 | 0.857 | 0.945 | 0.886 | 0.842 | 0.875 | 0.687 | 0.926 | 0.99 | 1.08 | 0.904 | 1.04 | 1.03
NCI-H1563 | 0.974 | 0.963 | 0.967 | 0.966 | 0.852 | 0.906 | 0.763 | 0.722 | 0.954 | 0.904 | 0.834 | 0.73 | 0.75 | 0.828 | 0.818 | 0.673 | 0.68 | 0.829
ABC-1 | 0.924 | 1.12 | 1 | 0.926 | 0.897 | 0.97 | 0.849 | 0.713 | 0.955 | 0.988 | 1.18 | 0.92 | 0.267 | 0.306 | 0.317 | 0.336 | 0.408 | 0.953
LCLC-103H | 0.992 | 1.03 | 1.1 | 0.978 | 1.04 | 0.948 | 0.655 | 0.575 | 1.04 | 0.648 | 0.939 | 0.994 | 0.969 | 1.08 | 0.921 | 0.742 | 0.729 | 0.875
NCI-H441 | 0.985 | 0.825 | 1.03 | 0.81 | 0.896 | 1.22 |  | 1.02 | 0.919 |  | 0.601 | 0.655 | 0.617 | 0.481 | 0.595 | 0.357 | 0.449 | 1.01
EPLC-272H | 0.918 | 1 | 1.2 | 0.783 | 0.71 | 0.888 | 0.535 | 0.596 | 0.952 | 0.904 | 1.05 | 0.912 | 0.706 |  | 0.973 | 0.904 | 0.834 | 0.778
